From US12516067B2, “Antagonists of the muscarinic acetylcholine receptor M4” (Vanderbilt University, priority 2020, dated 2026)

Biological target: T1, Human M4 (Homo sapiens, UniProt P08173)
T1 construct: expressed in transfected cells; host or cells: CHO-K1 (ATCC), co-transfected with chimeric G protein Gqi5
T1 sequence (P08173 1-479): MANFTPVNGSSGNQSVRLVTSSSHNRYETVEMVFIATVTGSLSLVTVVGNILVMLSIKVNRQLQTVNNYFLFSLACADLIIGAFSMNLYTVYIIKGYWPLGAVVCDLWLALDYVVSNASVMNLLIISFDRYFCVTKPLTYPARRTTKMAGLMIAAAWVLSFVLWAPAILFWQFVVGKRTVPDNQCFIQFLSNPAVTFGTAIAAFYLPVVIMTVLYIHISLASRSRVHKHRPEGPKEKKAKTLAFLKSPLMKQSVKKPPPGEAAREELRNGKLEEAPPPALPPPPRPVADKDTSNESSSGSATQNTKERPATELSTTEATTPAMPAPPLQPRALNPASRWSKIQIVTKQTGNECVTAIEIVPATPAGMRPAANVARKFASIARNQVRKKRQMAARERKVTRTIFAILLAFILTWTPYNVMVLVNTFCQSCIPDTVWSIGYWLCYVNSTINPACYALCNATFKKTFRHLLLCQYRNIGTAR
Test: mAChR M4 cell-based functional assay (calcium flux, decrease of EC80 acetylcholine response) in M4/Gqi5/CHO-K1 cells
Conditions: CHO-K1 cells with human M4 and Gqi5; for remaining activity at 30 µM: % ACh maximum at 30 μM, read-out: Human M4 Emin; for IC50: antagonist mode: concentration-dependent decrease of response to EC80 acetylcholine
Method: Human or rat M4 cDNA, along with the chimeric G protein Gqi5, were transfected into Chinese hamster ovary (CHO-K1) cells purchased from the American Type Culture Collection using Lipofectamine2000. M4/Gqi5/CHO cells were grown in Ham's F-12 medium containing 10% heat-inactivated fetal bovine serum (FBS), 20 mM HEPES, 500 μg/mL G418 sulfate, and 200 μg/mL Hygromycin B.
For high throughput measurement of agonist-evoked increases in intracellular calcium, CHO-K1 cells stably expressing muscarinic receptors were plated in growth medium lacking G418 and hygromycin at 15,000 cells/20 μL/well in Greiner 384-well black-walled, tissue culture (TC)-treated, clear-bottom plates (VWR). Cells were incubated overnight at 37° C. and 5% CO2. The next day, cells were washed using an ELX 405 (BioTek) with assay buffer; the final volume was then aspirated to 20 μL. Next, 20 μL of a 2.3 μM stock of Fluo-4/acetoxymethyl ester (Invitrogen, Carlsbad, CA), prepared as a 2.3 mM stock in DMSO and mixed in a 1:1 ratio with 10% (w/v) Pluronic F-127 and diluted in assay buffer, was added to the wells and the cell plates were incubated for 50 min at 37° C. and 5% CO2. Dye was removed by washing with the ELX 405 and the final volume was aspirated to 20 μL. Compound master plates were formatted in a 10 point concentration-response curve (CRC) format (1:3 dilutions) in 100% DMSO with a starting concentration of 10 or 1 mM using a BRAVO liquid handler (Agilent). Test compound CRCs were then transferred to daughter plates (240 nL) using the Echo acoustic plate reformatter (Labcyte, Sunnyvale, CA) and then diluted into assay buffer (40 μL) to a 2× stock using a Thermo Fisher Combi (Thermo Fisher Scientific, Waltham, MA).
Calcium flux was measured using the Functional Drug Screening System (FDSS) 6000 or 7000 (Hamamatsu Corporation, Tokyo, Japan) as an increase in the fluorescent static ratio. Compounds were applied to cells (20 μL, 2×) using the automated system of the FDSS at 2 seconds into the protocol and the data were collected at 1 Hz. At 143 s, 10 μL of an EC20 concentration of the muscarinic receptor agonist acetylcholine was added (5×), followed by the addition of 12 μL of an EC80 concentration of acetylcholine at the 268 s time point (5×). Agonist activity was analyzed as a concentration-dependent increase in calcium mobilization upon compound addition. Positive allosteric modulator activity was analyzed as a concentration-dependent increase in the EC20 acetylcholine response. Antagonist activity was analyzed as a concentration-dependent decrease in the EC80 acetylcholine response; for the purposes of the tables herein, an IC50 (inhibitory concentration 50) was calculated as a concentration-dependent decrease of the response elicited by an EC80 concentration of acetylcholine. Concentration-response curves were generated using a four-parameter logistical equation in XLFit curve fitting software (IDBS, Bridgewater, NJ) for Excel (Microsoft, Redmond, WA) or Prism (GraphPad Software, Inc., San Diego, CA) or the Dotmatics software platform (Dotmatics, Bishop's Stortford, UK).
Compounds were synthesized as described above. Activity (IC50 and Emin) was determined in the mAChR M4 cell-based functional assay as described above and the data are shown in Table 1.

Row | Structure (SMILES) | remaining activity at 30 µM | IC50
1 | Fc1cc(F)c(F)c(-c2ccc(NCc3csc4c3CCN(CC3CCOCC3)C4)nn2)c1 [A1, N-((6-((tetrahydro-2H-pyran-4-yl)methyl)-4,5,6,7-tetrahydrothieno[2,3-c]pyridin-3-yl)methyl)-6-(2,3,5-trifluorophenyl)pyridazin-3-amine] | 3% | 595 nM
2 | Fc1ccc(Cl)c(-c2ccc(NCc3csc4c3CCN(CC3CCOCC3)C4)nn2)c1 [A2, 6-(2-chloro-5-fluorophenyl)-N-((6-((tetrahydro-2H-pyran-4-yl)methyl)-4,5,6,7-tetrahydrothieno[2,3-c]pyridin-3-yl)methyl)pyridazin-3-amine] | 3% | 85.2 nM
3 | Cn1cc2cc(-c3ccc(NCc4csc5c4CCN(CC4CCOCC4)C5)nn3)ccc2n1 [A3, 6-(2-methyl-2H-indazol-5-yl)-N-((6-((tetrahydro-2H-pyran-4-yl)methyl)-4,5,6,7-tetrahydrothieno[2,3-c]pyridin-3-yl)methyl)pyridazin-3-amine] | 9% | 529 nM
4 | Fc1ccc(F)c(-c2ccc(NCc3csc4c3CCN(CC3CCOCC3)C4)nn2)c1 [A4, 6-(2,5-difluorophenyl)-N-((6-((tetrahydro-2H-pyran-4-yl)methyl)-4,5,6,7-tetrahydrothieno[2,3-c]pyridin-3-yl)methyl)pyridazin-3-amine] | 4% | 420 nM
5 | Cc1ccc(F)cc1-c1ccc(NCc2csc3c2CCN(CC2CCOCC2)C3)nn1 [A5, 6-(5-fluoro-2-methylphenyl)-N-((6-((tetrahydro-2H-pyran-4-yl)methyl)-4,5,6,7-tetrahydrothieno[2,3-c]pyridin-3-yl)methyl)pyridazin-3-amine] | 5% | 77.3 nM
6 | FC1(F)CCN(c2ccc(NCc3csc4c3CCN(CC3CCOCC3)C4)nn2)CC1 [A6, 6-(4,4-difluoropiperidin-1-yl)-N-((6-((tetrahydro-2H-pyran-4-yl)methyl)-4,5,6,7-tetrahydrothieno[2,3-c]pyridin-3-yl)methyl)pyridazin-3-amine] | 7% | 668 nM
7 | c1ccc(-c2ccc(NCc3csc4c3CCN(CC3CCOCC3)C4)nn2)cc1 [A7, 6-phenyl-N-((6-((tetrahydro-2H-pyran-4-yl)methyl)-4,5,6,7-tetrahydrothieno[2,3-c]pyridin-3-yl)methyl)pyridazin-3-amine] | 6% | 477 nM
8 | O=S1(=O)CCCCN1c1ccc(NCc2csc3c2CCN(CC2CCOCC2)C3)nn1 [A8, 2-(6-(((6-((tetrahydro-2H-pyran-4-yl)methyl)-4,5,6,7-tetrahydrothieno[2,3-c]pyridin-3-yl)methyl)amino)pyridazin-3-yl)-1,2-thiazinane 1,1-dioxide] | 11% | 1400 nM
9 | Fc1ccc(Cl)c(-c2ccc(NCc3csc4c3CCN(CC3CCCCC3)C4)nn2)c1 [A9, 6-(2-chloro-5-fluorophenyl)-N-((6-(cyclohexylmethyl)-4,5,6,7-tetrahydrothieno[2,3-c]pyridin-3-yl)methyl)pyridazin-3-amine] | 5% | 99.7 nM
10 | CC(C)(C)CCN1CCc2c(CNc3ccc(-c4cc(F)ccc4Cl)nn3)csc2C1 [A10, 6-(2-chloro-5-fluorophenyl)-N-((6-(3,3-dimethylbutyl)-4,5,6,7-tetrahydrothieno[2,3-c]pyridin-3-y)methyl)pyridazin-3-amine] | 4% | 84.7 nM
11 | Fc1ccc(Cl)c(-c2ccc(NCc3csc4c3CCN(Cc3ccccn3)C4)nn2)c1 [A11, 6-(2-chloro-5-fluorophenyl)-N-((6-(pyridin-2-ylmethyl)-4,5,6,7-tetrahydrothieno[2,3-c]pyridin-3-yl)methyl)pyridazin-3-amine] | 4% | 183 nM
